Measurements reported in PubChem BioAssay (NCI).
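These data come from cells grown in 96-well plates and exposed to compound for 48 hours at five concentrations. The concentration for 50% growth inhibition is given as GI50. Definition used: TGI = concentration required for complete inhibition of growth.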

Experiments:
Assay in all cases: inhibition of tumour cell growth, NCI panel, 48 h
[1] = test system: HT29 colon
[2] = test system: SR leukemia
[3] = test system: SK-MEL-28 melanoma
[4] = test system: HL-60(TB) leukemia
[5] = test system: HCC-2998 colon
[6] = test system: HCT-15 colon
[7] = test system: A498 renal
[8] = test system: MCF7 breast
[9] = test system: NCI-H226 lung
[10] = test system: HCT-116 colon

## O=C(Nc1cccc(-n2ccc3c(NC(=O)c4ccccc4)nccc32)c1)Nc1cc(C(F)(F)F)cc(C(F)(F)F)c1
[1]
  GI50: 1.37 µM
  TGI: 4.31 µM
[2]
  GI50: 1.72 µM
  TGI: 6.48 µM
[3]
  GI50: 2.14 µM
  TGI: > 50 µM
[4]
  GI50: 1.72 µM
  TGI: 5.01 µM
[5]
  GI50: 2.1 µM
  TGI: > 50 µM
[6]
  GI50: 1.07 µM
  TGI: 33.2 µM
[7]
  GI50: 1.53 µM
  TGI: > 50 µM
[8]
  GI50: 1.65 µM
  TGI: > 50 µM
[9]
  GI50: 1.66 µM
  TGI: 16.4 µM
[10]
  GI50: 1.69 µM
  TGI: 6.31 µM

## Nn1c(COc2cccc(OCc3n[nH]c(=S)n3N)c2)n[nH]c1=S
[1]
  TGI: > 100 µM
[2]
  TGI: 34.6 µM
[3]
  TGI: > 100 µM
[4]
  TGI: > 100 µM
[5]
  TGI: > 100 µM
[6]
  TGI: > 100 µM
[7]
  TGI: > 100 µM
[8]
  TGI: > 100 µM
[9]
  TGI: > 100 µM
[10]
  TGI: > 100 µM

## O=S(=O)(O)c1cc(O)c2c(N=Cc3ccccc3O)cc(S(=O)(=O)O)cc2c1
[1]
  TGI: > 100 µM
[2]
  TGI: > 100 µM
[3]
  TGI: > 100 µM
[4]
  TGI: > 100 µM
[5]
  TGI: > 100 µM
[6]
  TGI: > 100 µM
[7]
  TGI: > 100 µM
[8]
  TGI: > 100 µM
[9]
  TGI: > 100 µM
[10]
  TGI: > 100 µM

## CC(O)c1cc2c(s1)C(=O)c1sccc1C2=O (stereo not drawn)
[1]
  TGI: 0.597 µM
[2]
  TGI: > 100 µM
[3]
  TGI: 0.479 µM
[4]
  TGI: > 100 µM
[5]
  TGI: 0.402 µM
[6]
  TGI: 0.178 µM
[7]
  TGI: 0.429 µM
[8]
  TGI: 1.89 µM
[9]
  TGI: 0.428 µM
[10]
  TGI: 0.485 µM

## COc1ccc2c(CCN)c(C(=O)O)[nH]c2c1
[1]
  TGI: > 100 µM
[2]
  TGI: > 43.7 µM
[3]
  TGI: > 100 µM
[4]
  TGI: > 100 µM
[5]
  TGI: > 100 µM
[6]
  TGI: > 100 µM
[7]
  TGI: > 100 µM
[8]
  TGI: > 100 µM
[9]
  TGI: > 100 µM
[10]
  TGI: > 100 µM

## C[C@H](CCC(=O)NCCS(=O)(=O)O)[C@H]1CC[C@H]2[C@@H]3CC[C@@H]4C[C@H](O)CC[C@]4(C)[C@H]3CC[C@]12C
[1]
  TGI: > 100 µM
[2]
  TGI: > 100 µM
[3]
  TGI: > 100 µM
[4]
  TGI: > 100 µM
[5]
  TGI: > 100 µM
[6]
  TGI: > 100 µM
[7]
  TGI: > 100 µM
[8]
  TGI: > 100 µM
[9]
  TGI: > 100 µM
[10]
  TGI: > 100 µM

## O=C1CC2(c3ccccc3)ON=C(c3ccccc3)N2c2ccccc2N1 (stereo not drawn)
[1]
  TGI: > 100 µM
[2]
  TGI: > 100 µM
[3]
  TGI: > 100 µM
[4]
  TGI: > 100 µM
[5]
  TGI: > 100 µM
[6]
  TGI: > 100 µM
[7]
  TGI: > 100 µM
[8]
  TGI: > 100 µM
[9]
  TGI: > 100 µM
[10]
  TGI: > 100 µM

## Cn1c(=O)c(C(=O)Nc2nc(C34CC5CC(CC(C5)C3)C4)cs2)c(O)c2ccccc21
[1]
  TGI: > 100 µM
[2]
  TGI: > 100 µM
[3]
  TGI: > 100 µM
[4]
  TGI: > 100 µM
[5]
  TGI: > 100 µM
[6]
  TGI: > 100 µM
[7]
  TGI: > 100 µM
[8]
  TGI: > 100 µM
[9]
  TGI: > 100 µM
[10]
  TGI: > 100 µM

## CC(=O)OCCCOCn1c(Cc2ccccc2)c(C)c(=O)[nH]c1=O
[1]
  TGI: > 100 µM
[2]
  TGI: > 100 µM
[3]
  TGI: > 100 µM
[5]
  TGI: > 100 µM
[6]
  TGI: > 100 µM
[7]
  TGI: > 100 µM
[8]
  TGI: > 100 µM
[9]
  TGI: > 100 µM
[10]
  TGI: > 100 µM

## COC(=O)c1c(O)ccc2c1c1c(n2Cc2ccccc2Cl)C(=O)c2ccccc2C1=O
[1]
  TGI: 3.58 µM
[2]
  TGI: 47.8 µM
[3]
  TGI: 29.4 µM
[4]
  TGI: 49.6 µM
[5]
  TGI: 29.9 µM
[6]
  TGI: 31.8 µM
[7]
  TGI: 31.3 µM
[8]
  TGI: 32.4 µM
[9]
  TGI: 36.6 µM
[10]
  TGI: 31.2 µM

## CC(C)/C(Cl)=N\OC(=O)Nc1ccccc1F
[1]
  TGI: 54.3 µM
[2]
  TGI: 6.54 µM
[3]
  TGI: 30.4 µM
[4]
  TGI: 4.13 µM
[5]
  TGI: 19.6 µM
[6]
  TGI: 31.3 µM
[7]
  TGI: 28.3 µM
[8]
  TGI: 16 µM
[9]
  TGI: 28.8 µM
[10]
  TGI: 23.9 µM

## CC1(C)N=C(C(N)=O)c2ncn(N)c2N1
[1]
  TGI: > 100 µM
[2]
  TGI: > 100 µM
[3]
  TGI: > 100 µM
[4]
  TGI: > 100 µM
[5]
  TGI: > 100 µM
[6]
  TGI: > 100 µM
[7]
  TGI: > 100 µM
[8]
  TGI: > 100 µM
[9]
  TGI: > 100 µM
[10]
  TGI: > 100 µM

## C[C@]12CC[C@H]3[C@@H](CC=C4C[C@@H](N5CCCC5)CC[C@@]43C)[C@@H]1C[C@H](N1CCOCC1)[C@@H]2O
[1]
  TGI: > 100 µM
[2]
  TGI: 71.5 µM
[3]
  TGI: > 100 µM
[4]
  TGI: > 100 µM
[5]
  TGI: > 100 µM
[6]
  TGI: > 100 µM
[7]
  TGI: > 100 µM
[8]
  TGI: > 10 µM
[9]
  TGI: > 100 µM
[10]
  TGI: > 100 µM

## CC(=O)N=C1N(/C=C2\C(=O)Oc3ccccc3C2=O)C(=O)/C(=C/c2ccc(OC(C)=O)cc2)N1C
[1]
  TGI: > 100 µM
[2]
  TGI: > 100 µM
[3]
  TGI: > 100 µM
[4]
  TGI: > 100 µM
[5]
  TGI: > 100 µM
[6]
  TGI: > 100 µM
[7]
  TGI: > 100 µM
[8]
  TGI: > 100 µM
[9]
  TGI: > 100 µM
[10]
  TGI: > 100 µM

## Cc1[nH]c2c(c1C)S(=O)(=O)c1cc3ccccc3nc1N2
[1]
  TGI: 28.2 µM
[2]
  TGI: > 100 µM
[3]
  TGI: 67.3 µM
[5]
  TGI: > 100 µM
[6]
  TGI: > 100 µM
[7]
  TGI: > 100 µM
[8]
  TGI: > 100 µM
[9]
  TGI: 66.5 µM
[10]
  TGI: > 100 µM

## COC(=O)[C@]1(c2cc3ccccc3n2S(=O)(=O)c2ccccc2)CC2CN(C(C)=O)C1CC2=O (stereo partly drawn)
[1]
  TGI: 4.55 µM
[2]
  TGI: 5.12 µM
[3]
  TGI: 11.7 µM
[4]
  TGI: 4.64 µM
[5]
  TGI: 14 µM
[6]
  TGI: 9.06 µM
[7]
  TGI: 21.4 µM
[8]
  TGI: 3.37 µM
[9]
  TGI: 10.4 µM
[10]
  TGI: 4.2 µM

## COC(=O)NCCc1[nH]nc2c1C(=O)C=C(N1CCOCC1)C2=O
[1]
  TGI: > 100 µM
[2]
  TGI: > 100 µM
[3]
  TGI: > 100 µM
[4]
  TGI: > 100 µM
[5]
  TGI: > 100 µM
[6]
  TGI: > 100 µM
[7]
  TGI: > 100 µM
[8]
  TGI: > 100 µM
[9]
  TGI: > 100 µM
[10]
  TGI: > 100 µM
